Test results reported in patent publication US20220135540A1, “POLYMORPHS OF AN FXR AGONIST” (Eli Lilly and Company, priority 2020, published 2022).

Tests used:
[1] = Tissue distribution (liver versus plasma and other tissues); type: in vivo; conditions: liver relative to plasma, heart and skin, liver vs plasma, kidney, lungs, read-out: concentration in the liver relative to plasma, kidney, lungs, heart, and skin
Source text: Compound I is preferentially distributed to the liver, which, without being bound by theory, would allow the compound to reach its FXR target in the liver with fewer off-target adverse effects. For example, Compound I has an approximately 20-fold higher concentration in the liver than in the plasma, kidney, lungs, heart, and skin. This trait would likely be particularly beneficial for vulnerable populations, such as children, the elderly, and people with comorbidities.

[2] = Moisture sorption analysis (MSA); type: physicochemical; conditions: for hygroscopicity (overall, from moisture sorption data): 5% to 95% RH; for weight change (loss) between ~95% RH and ~5% RH: desorption step ~95% to ~5% RH; for weight loss upon equilibration at ~5% RH: moisture sorption; for weight change (gain) between ~5% and ~95% RH: sorption step ~5% to ~95% RH
Protocol: MSA analyses were performed using a VTI SGA-100 Vapor Sorption Analyzer. Sorption and desorption data were collected over a range of 5% to 95% relative humidity (RH) at 10% RH intervals under a nitrogen purge. Samples were not dried prior to analysis. Equilibrium criteria used for analysis were less than 0.0100% weight change in 5 minutes, with a maximum equilibration time of 3 hours if the weight criterion was not met. Data were not corrected for the initial moisture content of the samples. NaCl and PVP were used as calibration standards.

[3] = Solid form stability when stressed at high relative humidity; type: physicochemical; conditions: ~94% RH for 10 days
Protocol: Polymorphic Form I of Compound I was obtained by slurrying of Compound I in ethyl acetate or methanol at room temperature, or in a mixture IPA:water 1:1 at ˜58° C. Additionally, Form I was obtained by slow cooling of a solution of Compound I in acetonitrile.

[4] = Slurry interconversion of polymorphic forms; type: physicochemical
Protocol: Slurry interconversion experiments were performed at temperatures ranging from room temperature to ˜81° C. Solvent systems used for the study were nitromethane, acetonitrile, and a THF/heptane 1:2 (v/v) mixture.

Which Kp [1] does the source give for `Cn1cc(C(=O)O)c2ccc(N3CCC(OCc4c(-c5c(Cl)cccc5Cl)noc4C4CC4)CC3)cc21` [Compound I, 6-(4-((5-cyclopropyl-3-(2,6-dichlorophenyl)isoxazol-4-yl)methoxy)piperidin-1-yl)-1-methyl-1H-indole-3-carboxylic acid] here?
The Kp was about 20.

Which results are given for `Cn1cc(C(=O)O)c2ccc(N3CCC(OCc4c(-c5c(Cl)cccc5Cl)noc4C4CC4)CC3)cc21` [Form I, 6-(4-((5-cyclopropyl-3-(2,6-dichlorophenyl)isoxazol-4-yl)methoxy)piperidin-1-yl)-1-methyl-1H-indole-3-carboxylic acid]?
hygroscopicity (overall, from moisture sorption data) [2]: low hygroscopicity; weight change (loss) between ~95% RH and ~5% RH [2]: ~0.4 wt %; weight loss upon equilibration at ~5% RH [2]: ~0.1 wt %; weight change (gain) between ~5% and ~95% RH [2]: ~0.4 wt %; stability as a solid form under humidity stress [3]: remained stable

Which results are given for `Cn1cc(C(=O)O)c2ccc(N3CCC(OCc4c(-c5c(Cl)cccc5Cl)noc4C4CC4)CC3)cc21` [Form II, 6-(4-((5-cyclopropyl-3-(2,6-dichlorophenyl)isoxazol-4-yl)methoxy)piperidin-1-yl)-1-methyl-1H-indole-3-carboxylic acid]?
hygroscopicity (overall, from moisture sorption data) [2]: low hygroscopicity; weight change (loss) between ~95% RH and ~5% RH [2]: negligible weight change; weight loss upon equilibration at ~5% RH [2]: ~0.6 wt %; weight change (gain) between ~5% and ~95% RH [2]: negligible weight change; relative stability among polymorphic forms ([4]; ambient temperature and elevated temperature up to ~81° C.): most stable form

For `Cn1cc(C(=O)O)c2ccc(N3CCC(OCc4c(-c5c(Cl)cccc5Cl)noc4C4CC4)CC3)cc21` [I, II, III, IV, V, VI, VII], which “XRPD Result of slurry interconversion” value ([4]; ACN, RT, 1 day, ~5 mg each) is on record?
The value was “Form II”.

What about the “XRPD Result of slurry interconversion” value ([4]; Nitromethane, RT, 3 days, ~5 mg each) of the same compound?
The value was “Form II”.

What about the “XRPD Result of slurry interconversion” value ([4]; Nitromethane, ~78-81° C., 3 days, ~5 mg each) of the same compound?
Its value is “Form II”.

Which “XRPD Result of slurry interconversion” value ([4]; ACN, ~66-69° C., 1 day, ~5 mg each) does the source give for `Cn1cc(C(=O)O)c2ccc(N3CCC(OCc4c(-c5c(Cl)cccc5Cl)noc4C4CC4)CC3)cc21` [I, II, III, V] here?
The value was “Form II”.

What does the source list for `Cn1cc(C(=O)O)c2ccc(N3CCC(OCc4c(-c5c(Cl)cccc5Cl)noc4C4CC4)CC3)cc21` [I, II, VI]?
XRPD Result of slurry interconversion ([4]; THF/heptane 1:2, ~61° C., 1 day, ~15 mg each): Form II; XRPD Result of slurry interconversion ([4]; THF:heptane 1:2, RT, 1 day, ~15 mg each): Form II
